Measurements taken from patent US8507199B2, “Multi-color time resolved fluorophores based on macrocyclic lanthanide complexes” (Lumiphore, Inc., priority 2007, dated 2013).
Several values for one entry are separate records, joined by “and”; a condition that tells them apart may be missing. Equal values may be shown once.

Experiments:
[1] = Luminescence lifetime decay (biexponential fit) of FITC-Tb-BH22IAM conjugate; type: physicochemical; conditions: Tb-coordinated conjugate, excitation at BH22IAM absorption (~340 nm), emission at 520 nm
Description: A short lifetime corresponding to the direct excitation of fluorescein (3.92 nsec) and a long lifetime corresponding to excitation of BH22IAM and energy transfer to fluorescein (524 nsec).
In another exemplary embodiment, the compounds of the invention emit light at an emission wavelength of the fluorophore attached to the metal chelate through the acceptor-linker. […] For example, compound 3, when coordinated to terbium and excited at a BH22IAM absorption wavelength (˜340 nm), the metal chelate emits at 520 nm, the characteristic wavelength of fluorescein with a lifetime of 524 nsec. The new lifetime is over 100-fold longer than the lifetime for a fluorescein solution that is directly excited (<5 nsec).
The 524 nsec of the conjugated fluorescein is acquired through direct excitation of the Tb-BH22IAM complex at 340 nm, which normally has a very long lifetime (2.6 msec), followed by energy transfer to the conjugated fluorescein and emission at the characteristic wavelength for fluorescein (520 nm).

[2] = Steady-state absorption and emission spectra; type: physicochemical
Description: FIG. 8 is a steady-state absorption spectrum of FITC-BH22IAM conjugate.

SMILES: O=C(O)c1cc(NC(=S)NCCCCC2CN3CCNC(=O)c4cccc(c4O)C(=O)NCCN(CCNC(=O)c4cccc(c4O)C(=O)N2)CCN2CCNC(=O)c4cccc(c4O)C(=O)NCCN(CCNC(=O)c4cccc(c4O)C(=O)NCC2)CC3)ccc1-c1c2ccc(=O)cc-2oc2cc(O)ccc12 (stereo not drawn) [Compound 4a]
- long lifetime corresponding to excitation of BH22IAM and energy transfer to fluorescein [1]: 520 nsec and 524 nsec
- absorption maxima ([2]; 340 nm assigned to BH22IAM, 490 nm to fluorescein): 340 nm and 490 nm
- emission wavelength / emission maxima ([2]; excitation at BH22IAM absorption (~340 nm)): 520 nm
